From patent US20210381022A1, “INTEGRATED DRUG DISCOVERY PLATFORM FOR INBORN ERROR OF METABOLISM DISORDERS” (RAMOT AT TEL-AVIV UNIVERSITY LTD., priority 2018, published 2021)
Entries after “also recorded” stand apart in the source; their conditions may differ.

Legend:
gcv1Δ cells = settings: SD media with glycine
phenylalanine assemblies = settings: reference [4]; cited from earlier work
wild-type strain = experiment: Yeast growth assay of wild-type strain; assay type: cell-based, Saccharomyces cerevisiae; settings: tyrosine in media, EGCG added
Description: (§1) Strains were grown over night at 30° C. in SD medium without adenine. For spotting assays, strains were diluted to 6.25*10^7 cells/mL and were then 5-fold serially diluted and spotted on SD media with the indicated concentrations of adenine or TA (Sigma-Aldrich). Plates were incubated at 30° C. for 2 days. […] For OD600 measurements, strains were diluted to OD600 0.01, 200 μL of cells were platted on 96 wells plates and incubated at 30° C. for 25 hours with continuous shaking. OD600 was measured using Tecan™ SPARK 10M plate reader.

aro3Δ mutant = experiment: Yeast growth assay of aro3Δ mutant with tyrosine feeding; assay type: cell-based, Saccharomyces cerevisiae
Description: as §1
The focus was put on a strain with a deletion of the ARO3 gene in which a significant decrease in cellular growth was observed upon tyrosine feeding (see FIG. 21). The inventors aimed to determine whether the toxic effect was influenced by different levels of tyrosine. Thus, the cellular growth of wild-type and the aro3Δ mutant was examined by serial dilutions on selective plates that were supplemented with different concentrations of tyrosine (FIG. 21A). In addition, cellular growth was also examined by measuring the turbidity of the medium upon addition of the indicated concentration of tyrosine (FIG. 21B). […] Thus, cell growth is affected by tyrosine levels in a dose-dependent manner which further supports the notion that the toxicity in the aro3Δ mutant results from the presence of tyrosine.
In order to examine the effect of EGCG on cell growth, the aro3Δ mutant was spotted on 4a.a SD plates that contained tyrosine alone or tyrosine with different concentrations of EGCG. […] Thus, the lag phase in the presence of EGCG was nearly the same as cells unexposed to tyrosine, indicating the potent ability of EGCG to eliminate the tyrosine sensitivity of the aro3Δ mutant. […] Next, the inventors aimed to gain additional insights into the effect of EGCG on the amyloid-like fibrils formed by the accumulation of tyrosine in the aro3Δ mutant cells. For that purpose, cells were stained with the amyloid-specific dye ProteoStat®, and FACS was applied to detect tyrosine aggregates. […] (FIG. 25).

fah-1 RNAi treated worms = experiment: C. elegans model for Tyrosinemia (fah-1 RNAi); assay type: in vivo, Caenorhabditis elegans; settings: fah-1 RNAi, tyrosine added, EGCG added
Description: (§2) Wild-type N2, RB857 and NL2099 worms were obtained from the Caenorhabditis Genetics Center. RNAi clones was obtained from the Ahringer RNAi library as previously described [Fisher A L, et al., J. Biol. Chem. 283: 9127-9135(2008)]. Worms were grown on NGM media without peptone and the metabolites were added into a boiling media. Baicalein and EGCG were added to a media after cooled down to 45 degrees.
Mutations in different enzymes that are involved in the tyrosine degradation pathway are responsible for different types of Tyrosinemia. The tyrosine degradation pathway in mammals and C. elegans in conserved and the most severe is type I Tyrosinemia, which is caused by mutations affecting the last enzyme in the pathway, fumarylacetoacetate hydrolase (FAH). To study Tyrosinemia in C. elegans model, an RNAi was used that specifically silences the fumarylacetoacetate hydrolase (fah-1), as was previously reported (K10C4.2). RNAi directed against fah-1 causes severe phenotype of reduced size, impaired fertility and reduction of total number of viable worms (FIG. 32).

[1] = tested on: tyrosine aggregates in aro3Δ mutant cells; experiment: Flow cytometry with ProteoStat staining of aro3Δ mutant; assay type: cell-based, Saccharomyces cerevisiae; settings: tyrosine 0.02 mM, EGCG 5 mM
Description: An amount of 1 mL of logarithmic cells were washed with PBS buffer and sonicated using 15 s pulses at 20% power. For each sample, 2*10^6 cells were resuspended with ProteoStat dye (Enzo Life Sciences) diluted 1:3000 in ProteoStat assay buffer. Cells were incubated for 15 min at room temperature protected from light. Flow cytometry was preformed using Stratedigm S1000EXi and the CellCapTure software (Stratedigm, San Jose, Calif.). Live cells were gated (P1) by forward scatter and side scatter. Fluorescence channels for FITC (530/30) and PE-Cy5 (676/29) were used utilizing a 488 nm laser source. A total of 50,000 events were acquired for each sample. Analyses were performed using FlowJo software (TreeStar, version 10).
In order to examine whether the inhibition in cell growth in a non-linear cooperative manner upon tyrosine feeding (FIG. 23A, 23B) is associated with in vivo formation of amyloid-like assemblies, cells were stained with ProteoStat®, a well-established amyloid-specific fluorescent dye that was previously shown to detect the presence of intracellular protein amyloid-like aggregates in living bacterial cells with high specificity, even when the target proteins are expressed at low levels.
In order to examine the effect of EGCG on cell growth, the aro3Δ mutant was spotted on 4a.a SD plates that contained tyrosine alone or tyrosine with different concentrations of EGCG. […]

aro4Δ mutant = experiment: Yeast growth assay of aro4Δ mutant with phenylalanine; assay type: cell-based, Saccharomyces cerevisiae; settings: SD medium with phenylalanine
Description: The focus was put on a strain with a deletion of the ARO4 gene. The inventors aimed to determine whether the toxic effect is influenced by phenylalanine feeding. Thus, the cellular growth of wild-type and the aro4Δ mutant was examined by serial dilutions on selective plates that were supplemented with phenylalanine. In addition, cellular growth was also examined by measuring the turbidity of the medium upon addition of phenylalanine (FIG. 26A, 26B).

[2] = tested on: RB857 (PAH-1 mutant) and N2 (WT) worms; experiment: C. elegans model for PKU; assay type: in vivo, Caenorhabditis elegans
Description: as §2
To study PKU in C. elegans model, a strain was used with mutation in the PAH-1 gene (RB857)]. […] Next, the effect of one of the previously identified hits i.e. baicalein was examined on the development of worms. The life cycle of C. elegans is comprised of the embryonic stage, four larval stages (L1-L4) and adulthood. The end of each larval stage is marked with a molt, during which a new, stage-specific cuticle is synthesized and the old one is shed.

lat1Δ = experiment: Yeast growth assay of lat1Δ with isoleucine; assay type: cell-based, Saccharomyces cerevisiae; settings: minimal media with isoleucine, 40 h
Description: Growth curves of WT and lat1Δ on minimal media with or without […] isoleucine. Cells were incubated at 30° C. for 40 h, with continuous shaking.
To establish an in vivo model in yeast for the study of BCAA accumulation and toxicity, the LAT1 gene was disrupted. LAT1 encodes the dihydrolipoamide acetyltransferase component (E2) of the yeast pyruvate dehydrogenase complex. LAT1 catalyzes the oxidative decarboxylation of pyruvate to acetyl-CoA and mutations in DBT1, the human homolog, can lead to Maple Syrup Urine Disease (MSUD).

NCC(=O)O [glycine]
growth with glycine in the growth medium (gcv1Δ cells): dose-dependent growth inhibition

O=C(O[C@@H]1Cc2c(O)cc(O)cc2O[C@@H]1c1cc(O)c(O)c(O)c1)c1cc(O)c(O)c(O)c1 [EGCG, epigallocatechin gallate]
phenylalanine aggregation and cytotoxicity of the assemblies in vitro (phenylalanine assemblies): counteract | growth of wild-type cells (wild-type strain): no significant changes | growth of aro3Δ mutant (aro3Δ mutant; 4a.a SD with 0.03 mM tyrosine, different concentrations of EGCG): significant improvement in growth in a dose-dependent manner | lag phase of cell growth kinetics (aro3Δ mutant; tyrosine in media, EGCG treated vs untreated cells): notably shorter | fertility of worms (fah-1 RNAi treated worms): enhance the fertility of worms; also recorded: partially restore | total number of viable worms (fah-1 RNAi treated worms): elevation of the total number of worms; also recorded: partially restore | tyrosine aggregates percentage (ProteoStat, FACS) [1]: dramatic reduction in the tyrosine aggregates percentage

N[C@@H](Cc1ccccc1)C(=O)O [phenylalanine]
growth of aro4Δ mutant with phenylalanine in the medium (aro4Δ mutant): growth inhibition | RB857 worms that didn't reach adulthood by day 10 ([2]; 100 mM Phenylalanine): more than 90% | worms reaching adulthood on day 4 ([2]; RB857, 100 mM phenylalanine in minimal media): none of the worms reached adulthood on day 4 | number of worms ([2]; RB857, phenylalanine added): significantly reduced the number of worms

CC[C@H](C)[C@H](N)C(=O)O [isoleucine]
growth with isoleucine in the growth medium (lat1Δ): sensitivity
